From ChEMBL document CHEMBL1157902, “New diterpenoids from Caesalpinia species and their cytotoxic activity” (Bioorg Med Chem Lett, 2010)

How the values were obtained:
[1] = test system: HeLa; test: Cytotoxicity against human HeLa cells by MTT assay; assay type: functional, cell-based
[2] = test system: HL-60; test: Cytotoxicity against human HL60 cells by MTT assay; assay type: functional, cell-based

| SMILES | Activity [1] | IC50 [1] [µM] | Activity [2] | IC50 [2] [µM] |
| --- | --- | --- | --- | --- |
| C[C@H]1C2=CC(=O)O[C@]2(O)C[C@H]2[C@H]1[C@@H](O)[C@@H](OC(=O)c1ccccc1)[C@@]1(O)C(C)(C)CCC[C@]21C | Dose-dependent effect | 52.7 | Dose-dependent effect | 44.9 |
| COc1cc([C@@H]2c3cc4c(cc3[C@@H](O[C@@H]3O[C@@H]5CO[C@@H](C)O[C@H]5[C@H](O)[C@H]3O)[C@H]3COC(=O)[C@H]23)OCO4)cc(OC)c1O [ETOPOSIDE] | – | 8.93 | – | – |
| CC(=O)O[C@@H]1[C@H]2[C@@H](C)c3ccoc3C[C@@H]2[C@@]2(C)CCCC(C)(C)[C@]2(O)[C@@H]1OC(=O)/C=C/c1ccccc1 | Dose-dependent effect | 33.4 | Dose-dependent effect | 17.4 |
| C[C@H]1c2ccoc2C[C@H]2[C@H]1[C@@H](OC(=O)c1ccccc1)[C@@H](OC(=O)c1ccccc1)[C@@]1(O)C(C)(C)CCC[C@]21C | Dose-dependent effect | 33.9 | Dose-dependent effect | 19.8 |
| CC[C@@]1(O)C(=O)OCc2c1cc1n(c2=O)Cc2cc3ccccc3nc2-1 [CAMPTOTHECIN] | – | 0.94 | – | 0.59 |
